# How the values were obtained:
# Artemia = test: Toxicity in brine shrimp; format: organism-based; conditions: in vivo
# [1] = Cytotoxicity against human 9KB cells; format: functional; conditions: read-out: ED50 (the source's name)
# [2] = Cytotoxicity against mouse 9PS cells; format: functional; conditions: read-out: ED50 (the source's name)
compound,measurement,setting,value
C=Cc1cc(OC)c(OC)cc1OC,LC50,Artemia,8 ppm
same,EC50,[1],42 µg/mL
same,EC50,[2],27 µg/mL
